Experiments:
Tau-BiFC cells = assay: Cell viability (stained nuclei count) in Tau-BiFC cells; type: cell-based; conditions: 10 μM compound, 48 hours; Forskolin-only group = 100% cell viability
Protocol: In order to select novel tau protein aggregation-inhibiting substances, tau-BiFC cell model, in which formation of tau oligomers in living cells is easily observed, was used. Tau-BiFC cells were aliquoted into a 384-well plate. On the next day, the cells were treated with each of the compounds prepared according to Examples 1 to 57 at concentrations of 1 μM, 3 μM, and 10 μM, together with Forskolin (at a treatment concentration of 30 μM), which is a compound inducing tau protein aggregation by activating tau phosphorylase PKA. After 48 hours, nuclei in the cells were stained using Hoechst (at a treatment concentration of 2 μg/mL), and BiFC fluorescence intensity was automatically measured using Operetta (PerkinElmer) to count stained nuclei in each well out of the entire well plate. The group treated only with Forskolin, which induces tau protein aggregation, was set to a reference point of a 100% tau protein-aggregated state, and the effects of the compounds were confirmed using the equation “BiFC fluorescence intensity due to compound synthesized according to embodiment of present invention/(fluorescence intensity of control group treated only with Forskolin inducing tau protein aggregation−fluorescence intensity of untreated control group)×100”. Furthermore, the degree of cytotoxicity induced by the newly synthesized compound was also measured based on the 100% cell viability of the group treated only with Forskolin as a reference, and the cytotoxicity value of each compound was calculated using the equation “(number of stained nuclei in group treated with compound/number of stained nuclei in group treated with Forskolin)×100”. Based on the treatment results, substances inhibiting intracellular tau protein aggregation were selected from a series of candidate groups showing a tau protein aggregation inhibition rate of 70% or more and cell viability of 100% at a compound treatment concentration of 10 μM or more. […]

[1] = Liver microsome stability; type: in vitro ADME; conditions: 1 μM compound, 37° C., 30 minutes, NADPH; for Dog (%) amount of substrate remaining after the reaction: dog liver microsomes 0.25 mg/mL; for Human (%) amount of substrate remaining after the reaction: human liver microsomes 0.25 mg/mL; for Mouse (%) amount of substrate remaining after the reaction: mouse liver microsomes 0.25 mg/mL; for Rat (%) amount of substrate remaining after the reaction: rat liver microsomes 0.25 mg/mL
Protocol: The stability of liver microsomes due to the compounds prepared according to Examples 1 to 57 was confirmed. Specifically, four types of liver microsomes (human, dog, rat, and mouse, each 0.25 mg/mL), a 0.1 M phosphate buffer solution (pH 7.4), and each of the compounds at a concentration of 1 μM were mixed and pre-cultured at 37° C. for 5 minutes and further cultured at 37° C. for 30 minutes together with an NADPH generation system solution added thereto. Thereafter, the reaction was terminated by adding an acetonitrile solution containing an internal standard material (chloropropamide) and centrifuged for 5 minutes (14,000 rpm, 4° C.), and then a supernatant was injected into an LC-MS/MS system for analysis of substrate drugs to thereby evaluate metabolic stability due to 8 types of compounds.
The amount of the substrate remaining after the reaction was analyzed using the Shimadzu Nexera XR system and TSQ Vantage (Thermo). In an HPLC column, Kinetex XB-C18 (2.1 mm×100 mm, particle size of 2.6 μm; Phenomenex, USA) was used, and mobile phases were (A) distilled water containing 0.1% formic acid and (B) acetonitrile containing 0.1% formic acid. Analyst software (version 1.6.3) and Xcalibur (version 1.6.1) were used for data analysis.

| Structure (SMILES) | Cell viability (% @10 μM) (Tau-BiFC cells) [%] | Dog (%) amount of substrate remaining after the reaction [1] [%] | Human (%) amount of substrate remaining after the reaction [1] [%] | Mouse (%) amount of substrate remaining after the reaction [1] [%] | Rat (%) amount of substrate remaining after the reaction [1] [%] |
| --- | --- | --- | --- | --- | --- |
| N#CC(C#N)=NNc1ccc2c(c1)n(C(F)F)c(=O)n2C(F)F [Compound 24, (1,3-bis(difluoromethyl)-2-oxo-2,3-dihydro-1H-benzo[d]imidazol-5-yl)carbonohydrazonoyl dicyanide] | 125.1 | 88.1 | 88.2 | 84.1 | 86.8 |
| CC(C)n1c(=O)n(C)c2ccc(NN=C(C#N)C#N)cc21 [Compound 36, (3-isopropyl-1-methyl-2-oxo-2,3-dihydro-1H-benzo[d]imidazol-5-yl)carbonohydrazonoyl dicyanide] | 104 | – | >100 | 89.4 | 86.4 |
| CC(C)n1c(=O)n(C2CC2)c2ncc(NN=C(C#N)C#N)cc21 [Compound 53, (3-cyclopropyl-1-isopropyl-2-oxo-2,3-dihydro-1H-imidazo[4,5-b]pyridin-6-yl)carbonohydrazonoyl dicyanide] | 125 | – | 84.6 | 83.5 | 82.1 |
| CC(C)n1c(=O)n(C(C)C)c2ncc(NN=C(C#N)C#N)cc21 [Compound 34, (1,3-diisopropyl-2-oxo-2,3-dihydro-1H-imidazo[4,5-b]pyridin-6-yl)carbonohydrazonoyl dicyanide] | 120 | – | >100 | 86.6 | 57.5 |
| Cn1c(=O)[nH]c2cc(NN=C(C#N)C#N)ccc21 [Compound 17, (1-methyl-2-oxo-2,3-dihydro-1H-benzo[d]imidazol-5-yl)carbonohydrazonoyl dicyanide] | 94.38 | >100 | >100 | 95.7 | >100 |
| CC(C)n1ccc2c(NN=C(C#N)C#N)cccc2c1=O [Compound 6, (2-isopropyl-1-oxo-1,2-dihydroisoquinolin-5-yl)carbonohydrazonoyl dicyanide] | 118.1 | 95 | 94.2 | 87 | >100 |
| CC(C)n1c(=O)n(C2CC2)c2ccc(NN=C(C#N)C#N)cc21 [Compound 42, (1-cyclopropyl-3-isopropyl-2-oxo-2,3-dihydro-1H-benzo[d]imidazol-5-yl)carbonohydrazonoyl dicyanide] | 124 | – | 81.7 | 63.4 | 78.7 |
| N#CC(C#N)=NNc1cccc2c(=O)[nH]ccc12 [Compound 4, (1-oxo-1,2-dihydroisoquinolin-5-yl)carbonohydrazonoyl dicyanide] | 99.3 | >100 | >100 | >100 | 94.5 |
| N#CC(C#N)=NNc1ccc2c(c1)sc(=O)n2C(F)F [Compound 19, (3-(difluoromethyl)-2-oxo-2,3-dihydrobenzo[d]thiazol-6-yl)carbonohydrazonoyl dicyanide] | 125.3 | 80.4 | 99.7 | 58.7 | 69.7 |
| CC(C)n1c(=O)n(C(F)F)c2cc(NN=C(C#N)C#N)ccc21 [Compound 43, (3-(difluoromethyl)-1-isopropyl-2-oxo-2,3-dihydro-1H-benzo[d]imidazol-5-yl)carbonohydrazonoyl dicyanide] | 96 | – | 81.5 | 58.6 | 86.2 |
| CC(C)n1ccc2ccc(NN=C(C#N)C#N)cc2c1=O [Compound 3, (2-isopropyl-1-oxo-1,2-dihydroisoquinolin-7-yl)carbonohydrazonoyl dicyanide] | 112 | 6.4 | 57.4 | 10.1 | 44.4 |
| Cn1c(=O)n(C)c2cc(NN=C(C#N)C#N)ccc21 [Compound 22, (1,3-dimethyl-2-oxo-2,3-dihydro-1H-benzo[d]imidazol-5-yl)carbonohydrazonoyl dicyanide] | 120.7 | 92.2 | 80.6 | 63.1 | 91.6 |
| Cn1ccc2ccc(NN=C(C#N)C#N)cc2c1=O [Compound 2, (2-methyl-1-oxo-1,2-dihydroisoquinolin-7-yl)carbonohydrazonoyl dicyanide] | 57.5 | 2.5 | 27 | 63.4 | 88 |
| Cn1c(=O)oc2cc(NN=C(C#N)C#N)ccc21 [Compound 16, (3-methyl-2-oxo-2,3-dihydrobenzo[d]oxazol-6-yl)carbonohydrazonoyl dicyanide] | 129.8 | 95.7 | 98.9 | 81 | 89.1 |
| N#CC(C#N)=NNc1ccc2[nH]c(=O)oc2c1 [Compound 15, (2-oxo-2,3-dihydrobenzo[d]oxazol-6-yl)carbonohydrazonoyl dicyanide] | 127.7 | 97.1 | 74.2 | >100 | 92.5 |
| CCn1c(=O)n(C)c2ccc(NN=C(C#N)C#N)cc21 [Compound 35, (3-ethyl-1-methyl-2-oxo-2,3-dihydro-1H-benzo[d]imidazol-5-yl)carbonohydrazonoyl dicyanide] | 130 | – | 98.7 | 87.1 | 86 |
| CC(C)n1c(=O)n(C(C)C)c2cc(NN=C(C#N)C#N)ccc21 [Compound 23, (1,3-diisopropyl-2-oxo-2,3-dihydro-1H-benzo[d]imidazol-5-yl)carbonohydrazonoyl dicyanide] | 117 | 86.1 | 83.1 | 72.4 | 77.7 |
| CCn1c(=O)n(C)c2cc(NN=C(C#N)C#N)ccc21 [Compound 38, (1-ethyl-3-methyl-2-oxo-2,3-dihydro-1H-benzo[d]imidazol-5-yl)carbonohydrazonoyl dicyanide] | 106 | – | 95 | 81.6 | 91.8 |
